{"source": "patent US20200345666A1", "about": "“HERBAL MEDICINAL TABLET FORMULATION FOR TREATING OBESITY WHICH CAN BE […] ON SASANG CONS[…]” (NUBEBE CO., LTD., priority 2017, published 2020)", "origin": "cited, not measured here", "conditions": "taken for 20 weeks or more; Journal of Korean Medicine 2017"}
{"smiles": "CN[C@@H](C)[C@H](O)c1ccccc1", "note": "[ephedrine]", "values": [{"measurement": "weight and body fat loss compared to control group", "result": "showed weight and body fat loss"}]}
